In brackets after ≈: the same amount, converted by molar mass.
Key:
Assay type in all cases: cell-based
[1] = test system: Streptococcus pyogenes M808; assay: In vitro antibacterial activity, microbroth dilution method (CLSI method), test bacterium D (erythromycin resistant); details: read-out: MIC (minimum inhibitory concentration), test bacterium D
Procedure: (§1) In vitro antibacterial activities of the compounds of the present invention against various test bacteria were measured according to the microbroth dilution method (CLSI method). Among them, the bacteria C, D and E are erythromycin resistant bacteria. The MIC values (minimum inhibitory concentration, μg/ml) for the test bacteria A and B are exemplified in Table 22.

[2] = test system: Streptococcus pneumoniae ATCC700904; assay: In vitro antibacterial activity, microbroth dilution method (CLSI method), test bacterium C (erythromycin resistant); details: read-out: MIC (minimum inhibitory concentration), test bacterium C
Procedure: as §1

[3] = test system: Streptococcus pneumoniae ATCC49619; assay: In vitro antibacterial activity, microbroth dilution method (CLSI method), test bacterium B; details: read-out: MIC (minimum inhibitory concentration), test bacterium B
Procedure: as §1

[4] = test system: Haemophilus infuenzae ATCC43095; assay: In vitro antibacterial activity, microbroth dilution method (CLSI method), test bacterium A; details: read-out: MIC (minimum inhibitory concentration), test bacterium A
Procedure: as §1

SMILES	MIC [1] [µg/mL]	MIC [2] [µg/mL]	MIC [3] [µg/mL]	MIC [4] [µg/mL]
CC[C@H]1OC(=O)[C@H](C)[C@@H](O[C@H]2C[C@@](C)(OC)[C@@](O)(CN(C)CCN(C)C)[C@H](C)O2)[C@H](C)[C@@H](O[C@@H]2O[C@H](C)C[C@H](N(C)C)[C@H]2O)[C@@](C)(OC)C[C@@H](C)C(=O)[C@H](C)[C@H]2N(C)C(=O)O[C@]12C [Example 183]	≥ 16	0.5 to 2 (≈ 0.555 to 2.22 µM)	–	–
CC[C@H]1OC(=O)[C@H](C)[C@@H](O[C@H]2C[C@@](C)(OC)[C@@](O)(CN(C)CCN3C4CCC3CC4)[C@H](C)O2)[C@H](C)[C@@H](O[C@@H]2O[C@H](C)C[C@H](N(C)C)[C@H]2O)[C@@](C)(OC)C[C@@H](C)C(=O)[C@H](C)[C@H]2N(CCNS(C)(=O)=O)C(=O)O[C@]12C [Example 446]	4 to 8 (≈ 3.77 to 7.54 µM)	0.12 to 0.25 (≈ 0.113 to 0.236 µM)	–	–
CC[C@H]1OC(=O)[C@H](C)[C@@H](O[C@H]2C[C@@](C)(OC)[C@@](O)(CN(C)CCN(CC)C(C)=O)[C@H](C)O2)[C@H](C)[C@@H](O[C@@H]2O[C@H](C)C[C@H](N(C)C)[C@H]2O)[C@@](C)(OC)C[C@@H](C)C(=O)[C@H](C)[C@H]2NC(=O)O[C@@]21C [Example263]	–	–	0.06 (≈ 0.0646 µM)	8 (≈ 8.61 µM)
CC[C@H]1OC(=O)[C@H](C)[C@@H](O[C@H]2C[C@@](C)(OC)[C@@](O)(CN(CCOC)CCN(CC)CC)[C@H](C)O2)[C@H](C)[C@@H](O[C@@H]2O[C@H](C)C[C@H](N(C)C)[C@H]2O)[C@@](C)(OC)C[C@@H](C)C(=O)[C@H](C)[C@H]2N(CCNS(C)(=O)=O)C(=O)O[C@]12C [Example443]	–	–	0.03 (≈ 0.0278 µM)	4 (≈ 3.7 µM)
CC[C@H]1OC(=O)[C@H](C)[C@@H](O[C@H]2C[C@@](C)(OC)[C@@](O)(CN(C)CCN(CC)C(C)=O)[C@H](C)O2)[C@H](C)[C@@H](O[C@@H]2O[C@H](C)C[C@H](N(C)C)[C@H]2O)[C@@](C)(OC)C[C@@H](C)C(=O)[C@H](C)[C@H]2NC(=O)O[C@@]21C [Example 263]	≥ 16	0.5 to 2 (≈ 0.538 to 2.15 µM)	–	–
CC[C@H]1OC(=O)[C@H](C)[C@@H](O[C@H]2C[C@@](C)(OC)[C@@](O)(CN(C)CCN(C)C(C)(C)c3ccccc3OC)[C@H](C)O2)[C@H](C)[C@@H](O[C@@H]2O[C@H](C)C[C@H](N(C)C)[C@H]2O)[C@@](C)(OC(N)=O)C[C@@H](C)C(=O)[C@H](C)[C@H]2NC(=O)O[C@@]21C [Example342]	–	–	0.06 (≈ 0.0571 µM)	4 (≈ 3.81 µM)
CC[C@H]1OC(=O)[C@H](C)[C@@H](O[C@H]2C[C@@](C)(OC)[C@@](O)(CN(C)CCN(CC)CC)[C@H](C)O2)[C@H](C)[C@@H](O[C@@H]2O[C@H](C)C[C@H](N(C)C)[C@H]2O)[C@@](C)(OC)C[C@@H](C)C(=O)[C@H](C)[C@H]2N(CC3CCS(=O)(=O)C3)C(=O)O[C@]12C (stereo partly drawn) [Example 154]	4 to 8 (≈ 3.82 to 7.64 µM)	0.12 to 0.25 (≈ 0.115 to 0.239 µM)	–	–
CC[C@H]1OC(=O)[C@H](C)[C@@H](O[C@H]2C[C@@](C)(OC)[C@@](O)(CN(C)CCN(CC)CC)[C@H](C)O2)[C@H](C)[C@@H](O[C@@H]2O[C@H](C)C[C@H](N(C)C)[C@H]2O)[C@@](C)(OC)C[C@@H](C)C(=O)[C@H](C)[C@H]2N(O)C(=O)O[C@]12C [Example170]	–	–	0.03 (≈ 0.0322 µM)	4 (≈ 4.3 µM)
CC[C@H]1OC(=O)[C@H](C)[C@@H](O[C@H]2C[C@@](C)(OC)[C@@](O)(CN(C)CCN(CC)CC)[C@H](C)O2)[C@H](C)[C@@H](O[C@@H]2O[C@H](C)C[C@H](N(C)C)[C@H]2O)[C@@](C)(OC)C[C@@H](C)C(=O)[C@H](C)[C@H]2N(O)C(=O)O[C@]12C [Example 170]	4 to 8 (≈ 4.3 to 8.59 µM)	0.12 to 0.25 (≈ 0.129 to 0.268 µM)	–	–
CC[C@H]1OC(=O)[C@H](C)[C@@H](O[C@H]2C[C@@](C)(OC)[C@@](O)(CN(C)CCN(C)C(C)(C)c3ccccc3OC)[C@H](C)O2)[C@H](C)[C@@H](O[C@@H]2O[C@H](C)C[C@H](N(C)C)[C@H]2O)[C@@](C)(OC)C[C@@H](C)C2=NCCN3C(=O)O[C@@]1(C)[C@H]3[C@H]2C [Example338]	–	–	0.06 (≈ 0.0573 µM)	8 (≈ 7.65 µM)
CC[C@H]1OC(=O)[C@H](C)[C@@H](O[C@H]2C[C@@](C)(OC)[C@@](O)(CN(C)CCN(CC)CC)[C@H](C)O2)[C@H](C)[C@@H](O[C@@H]2O[C@H](C)C[C@H](N(C)C)[C@H]2O)[C@@](C)(OC)C[C@@H](C)C(=O)[C@H](C)[C@H]2N(CC3CCS(=O)(=O)C3)C(=O)O[C@]12C (stereo partly drawn) [Example154]	–	–	0.06 (≈ 0.0573 µM)	4 (≈ 3.82 µM)
CC[C@H]1OC(=O)[C@H](C)[C@@H](O[C@H]2C[C@@](C)(OC)[C@@](O)(CN(C)CCN(C)C(C)(C)c3ccccc3OC)[C@H](C)O2)[C@H](C)[C@@H](O[C@@H]2O[C@H](C)C[C@H](N(C)C)[C@H]2O)[C@@](C)(OC)C[C@@H](C)[C@@H]2NCCN3C(=O)O[C@@]1(C)[C@H]3[C@@H]2C [Example340]	–	–	0.06 (≈ 0.0572 µM)	4 (≈ 3.82 µM)
CC[C@H]1OC(=O)[C@H](C)[C@@H](O[C@H]2C[C@@](C)(OC)[C@@](O)(CN(C)CCN(C)C(C)(C)c3ccccc3OC)[C@H](C)O2)[C@H](C)[C@@H](O[C@@H]2O[C@H](C)C[C@H](N(C)C)[C@H]2O)[C@@](C)(OC)C[C@@H](C)C(=O)[C@H](C)[C@H]2C(C#N)C(=O)O[C@@]21C (stereo partly drawn) [Example363]	–	–	0.06 (≈ 0.0574 µM)	8 (≈ 7.65 µM)
CC[C@H]1OC(=O)[C@H](C)[C@@H](O[C@H]2C[C@@](C)(OC)[C@@](O)(CN(C)CCN(CC)C3CCC3)[C@H](C)O2)[C@H](C)[C@@H](O[C@@H]2O[C@H](C)C[C@H](N(C)C)[C@H]2O)[C@@](C)(OC)C[C@@H](C)C(=O)[C@H](C)[C@H]2N(CCCS(C)(=O)=O)C(=O)O[C@]12C [Example418]	–	–	0.03 (≈ 0.0283 µM)	4 (≈ 3.77 µM)

Continued, values first:

MIC [1] [µg/mL]	MIC [2] [µg/mL]	MIC [3] [µg/mL]	MIC [4] [µg/mL]	SMILES
≥ 16	0.12 to 0.25 (≈ 0.127 to 0.264 µM)	–	–	CC[C@H]1OC(=O)[C@H](C)[C@@H](O[C@H]2C[C@@](C)(OC)[C@@](O)(CN(C)CCN(CC)C(=O)OC)[C@H](C)O2)[C@H](C)[C@@H](O[C@@H]2O[C@H](C)C[C@H](N(C)C)[C@H]2O)[C@@](C)(OC)C[C@@H](C)C(=O)[C@H](C)[C@H]2NC(=O)O[C@@]21C [Example 264]
≥ 16	0.5 to 2 (≈ 0.538 to 2.15 µM)	–	–	CC[C@H]1OC(=O)[C@H](C)[C@@H](O[C@H]2C[C@@](C)(OC)[C@@](O)(CN(C)C(=O)CN(CC)CC)[C@H](C)O2)[C@H](C)[C@@H](O[C@@H]2O[C@H](C)C[C@H](N(C)C)[C@H]2O)[C@@](C)(OC)C[C@@H](C)C(=O)[C@H](C)[C@H]2NC(=O)O[C@@]21C [Example 329]
4 to 8 (≈ 3.69 to 7.38 µM)	0.12 to 0.25 (≈ 0.111 to 0.231 µM)	–	–	CC[C@H]1OC(=O)[C@H](C)[C@@H](O[C@H]2C[C@@](C)(OC)[C@@](O)(CN(C)CCN(C)C)[C@H](C)O2)[C@H](C)[C@@H](O[C@@H]2O[C@H](C)C[C@H](N(C)C)[C@H]2O)[C@@](C)(OC(=O)NC/C=C/c2ccc3ncccc3c2)C[C@@H](C)C(=O)[C@H](C)[C@H]2NC(=O)O[C@@]21C [Example 348]
4 to 8 (≈ 3.81 to 7.62 µM)	0.12 to 0.25 (≈ 0.114 to 0.238 µM)	–	–	CC[C@H]1OC(=O)[C@H](C)[C@@H](O[C@H]2C[C@@](C)(OC)[C@@](O)(CN(CC)CCN(CC)CC)[C@H](C)O2)[C@H](C)[C@@H](O[C@@H]2O[C@H](C)C[C@H](N(C)C)[C@H]2O)[C@@](C)(OC)C[C@@H](C)C(=O)[C@H](C)[C@H]2N(CCNS(C)(=O)=O)C(=O)O[C@]12C [Example 413]
4 to 8 (≈ 3.76 to 7.52 µM)	0.12 to 0.25 (≈ 0.113 to 0.235 µM)	–	–	CC[C@H]1OC(=O)[C@H](C)[C@@H](O[C@H]2C[C@@](C)(OC)[C@@](O)(CN(C)CCN(C(C)C)C(C)C)[C@H](C)O2)[C@H](C)[C@@H](O[C@@H]2O[C@H](C)C[C@H](N(C)C)[C@H]2O)[C@@](C)(OC)C[C@@H](C)C(=O)[C@H](C)[C@H]2N(CCS(=O)(=O)NC)C(=O)O[C@]12C [Example 451]
4 to 8 (≈ 3.76 to 7.52 µM)	0.12 to 0.25 (≈ 0.113 to 0.235 µM)	–	–	CC[C@H]1OC(=O)[C@H](C)[C@@H](O[C@H]2C[C@@](C)(OC)[C@@](O)(CN(C)CCN(CC)CC)[C@H](C)O2)[C@H](C)[C@@H](O[C@@H]2O[C@H](C)C[C@H](N(C)C)[C@H]2O)[C@@](C)(OC)C[C@@H](C)C(=O)[C@H](C)[C@H]2N(CCN3CCNS3(=O)=O)C(=O)O[C@]12C [Example 440]
4 to 8 (≈ 3.7 to 7.4 µM)	0.12 to 0.25 (≈ 0.111 to 0.231 µM)	–	–	CC[C@H]1OC(=O)[C@H](C)[C@@H](O[C@H]2C[C@@](C)(OC)[C@@](O)(CN(CCOC)CCN(CC)CC)[C@H](C)O2)[C@H](C)[C@@H](O[C@@H]2O[C@H](C)C[C@H](N(C)C)[C@H]2O)[C@@](C)(OC)C[C@@H](C)C(=O)[C@H](C)[C@H]2N(CCNS(C)(=O)=O)C(=O)O[C@]12C [Example 443]
≥ 16	0.5 to 2 (≈ 0.504 to 2.02 µM)	–	–	CC[C@H]1OC(=O)[C@H](C)[C@@H](O[C@H]2C[C@@](C)(OC)[C@@](O)(CN(C)CCN(C)C(C)(C)c3ccccc3OC)[C@H](C)O2)[C@H](C)[C@@H](O[C@@H]2O[C@H](C)C[C@H](N(C)C)[C@H]2O)[C@]2(C)C[C@@H](C)C(O2)[C@H](C)[C@H]2NC(=O)O[C@@]21C [Example 332]
≤ 2	0.12 to 0.25 (≈ 0.113 to 0.236 µM)	–	–	CC[C@H]1OC(=O)[C@H](C)[C@@H](O[C@H]2C[C@@](C)(OC)[C@@](O)(CN(C)CCN(CC)C3CCC3)[C@H](C)O2)[C@H](C)[C@@H](O[C@@H]2O[C@H](C)C[C@H](N(C)C)[C@H]2O)[C@@](C)(OC)C[C@@H](C)C(=O)[C@H](C)[C@H]2N(CCCS(C)(=O)=O)C(=O)O[C@]12C [Example 418]
≤ 2	0.12 to 0.25 (≈ 0.113 to 0.234 µM)	–	–	CC[C@H]1OC(=O)[C@H](C)[C@@H](O[C@H]2C[C@@](C)(OC)[C@@](O)(CN(C)CCN(C(C)C)C(C)C)[C@H](C)O2)[C@H](C)[C@@H](O[C@@H]2O[C@H](C)C[C@H](N(C)C)[C@H]2O)[C@@](C)(OC)C[C@@H](C)C(=O)[C@H](C)[C@H]2N(CCOS(N)(=O)=O)C(=O)O[C@]12C [Example 456]

Source: patent US9139609B2, “C-4″ position substituted macrolide derivative” (priority 2011, dated 2015)
